The source of these data is patent US20230271954A1 (Gossamer Bio Services, Inc., priority 2020, published 2023).

The IC50 is the midpoint of a concentration-inhibition curve.

One test deals with DGKα (Homo sapiens, UniProt P23743). Description: DGKα biochemical assay (ADP-Glo). The settings on record: read-out: DGK α IC50. In outline: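 ADP-Glo kinase assay using OAG/PS (1:2) lipid substrate, sonicated, in HEPES pH 7.0 buffer with MgCl2, CaCl2, DTT, BSA, Triton X-100. Enzyme preincubated with compound 30 min at RT; substrate with ATP (DGKα: 400 μM) added, 45 min RT. Luminescence read; % inhibition vs DMSO and no-enzyme controls.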
Chain of DGKα (P23743 whole entry): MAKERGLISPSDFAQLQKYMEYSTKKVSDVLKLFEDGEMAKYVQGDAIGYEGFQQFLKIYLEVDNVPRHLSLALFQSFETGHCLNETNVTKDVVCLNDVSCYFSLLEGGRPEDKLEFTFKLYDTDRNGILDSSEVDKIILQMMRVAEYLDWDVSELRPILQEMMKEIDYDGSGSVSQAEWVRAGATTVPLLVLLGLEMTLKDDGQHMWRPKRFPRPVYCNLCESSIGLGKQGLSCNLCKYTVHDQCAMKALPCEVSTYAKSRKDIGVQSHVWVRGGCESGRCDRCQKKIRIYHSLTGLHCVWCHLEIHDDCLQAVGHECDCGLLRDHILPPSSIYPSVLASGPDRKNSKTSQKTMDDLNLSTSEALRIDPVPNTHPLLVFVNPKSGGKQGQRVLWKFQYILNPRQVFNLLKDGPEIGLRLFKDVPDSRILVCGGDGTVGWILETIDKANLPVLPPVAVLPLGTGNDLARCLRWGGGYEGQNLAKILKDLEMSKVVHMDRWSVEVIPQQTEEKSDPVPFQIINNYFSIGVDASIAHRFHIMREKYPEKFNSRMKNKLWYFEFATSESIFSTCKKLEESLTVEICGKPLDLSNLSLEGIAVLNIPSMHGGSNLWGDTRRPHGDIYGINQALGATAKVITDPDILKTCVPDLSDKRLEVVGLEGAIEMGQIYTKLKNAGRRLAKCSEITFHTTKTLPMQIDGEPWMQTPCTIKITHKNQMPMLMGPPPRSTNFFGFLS
On the technique in general: ADP-Glo first removes unused ATP, then detects ADP through luciferase.

For the next test, the target named is T1, DGKζ (Homo sapiens, UniProt Q13574).
T1 construct: purchased Carna 12-110
T1 sequence (Q13574 1-929 isoform Q13574-4): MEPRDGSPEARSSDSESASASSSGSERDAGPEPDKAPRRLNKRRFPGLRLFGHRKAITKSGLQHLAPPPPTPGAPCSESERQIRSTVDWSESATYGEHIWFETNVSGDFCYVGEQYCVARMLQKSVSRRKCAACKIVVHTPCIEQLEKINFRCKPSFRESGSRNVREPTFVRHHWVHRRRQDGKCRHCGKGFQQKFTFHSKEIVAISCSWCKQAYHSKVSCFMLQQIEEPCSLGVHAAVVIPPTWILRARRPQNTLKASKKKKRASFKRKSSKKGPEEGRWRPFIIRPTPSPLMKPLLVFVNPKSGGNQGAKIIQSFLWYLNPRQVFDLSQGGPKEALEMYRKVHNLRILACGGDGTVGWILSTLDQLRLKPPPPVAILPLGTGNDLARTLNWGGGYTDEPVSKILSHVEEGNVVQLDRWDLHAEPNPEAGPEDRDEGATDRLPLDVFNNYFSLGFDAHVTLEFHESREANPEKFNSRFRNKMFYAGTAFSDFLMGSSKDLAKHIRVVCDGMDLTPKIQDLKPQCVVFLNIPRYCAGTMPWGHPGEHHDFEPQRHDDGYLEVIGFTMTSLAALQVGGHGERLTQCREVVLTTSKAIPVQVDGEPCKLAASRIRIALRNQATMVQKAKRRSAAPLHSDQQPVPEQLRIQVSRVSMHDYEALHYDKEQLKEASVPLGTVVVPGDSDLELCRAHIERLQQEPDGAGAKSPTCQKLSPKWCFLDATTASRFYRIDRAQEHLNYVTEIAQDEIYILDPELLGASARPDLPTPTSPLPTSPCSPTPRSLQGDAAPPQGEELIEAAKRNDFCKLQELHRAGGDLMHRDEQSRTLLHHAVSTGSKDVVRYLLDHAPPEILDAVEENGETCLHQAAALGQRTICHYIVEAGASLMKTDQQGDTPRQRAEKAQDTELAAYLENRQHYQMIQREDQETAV
Description: DGKζ biochemical assay (ADP-Glo). Particulars: read-out: DGK ζ IC50.

Counter-ions that a name gives are not always drawn. Bounds are passed on as bounds.

As for `Cc1cc(N(CC2CCC2)[C@H]2CC[C@H](N(C)c3c(C#N)c(=O)n(C)c4ccc(C#N)nc34)CC2)ccc1F` [Example 126, trans-8-((-4-((cyclobutylmethyl)(4-fluoro-3-methylphenyl)amino)cyclohexyl)(methyl)amino)-5-methyl-6-oxo-5,6-dihydro-1,5-naphthyridine-2,7-dicarbonitrile], the half-maximal inhibitory concentration (IC50) on DGKα and at DGKζ was 100 to 1000 nM in each case.
Regarding `Cc1cc2c(cc1N(CC1CCC1)[C@H]1CC[C@@H](N(C)c3c(C#N)c(=O)n(C)c4ccc(C#N)nc34)CC1)OCO2` [Example 152, cis-8-((4-((cyclobutylmethyl)(6-methylbenzo[d][1,3]dioxol-5-yl)amino)cyclohexyl)(methyl)amino)-5-methyl-6-oxo-5,6-dihydro-1,5-naphthyridine-2,7-dicarbonitrile], the IC50 on DGKα and on DGKζ was no less than 1000 nM each time.
On to `Cn1c(=O)cc(N(C)[C@H]2CC[C@@H](N(CC3CCS(=O)(=O)CC3)c3ccc(F)cc3)CC2)c2nc(C#N)ccc21` [Example 211, cis-8-((4-(((1,1-dioxidotetrahydro-2H-thiopyran-4-yl)methyl)(4-fluorophenyl)amino)cyclohexyl)(methyl)amino)-5-methyl-6-oxo-5,6-dihydro-1,5-naphthyridine-2-carbonitrile], for which the values for the IC50 on DGKα and on DGKζ were 10 to 100 nM and no less than 1000 nM, respectively.
Regarding `Cn1c(=O)cc(N(C)[C@H]2CC[C@H](N(CC3COC3)c3ccc(F)cc3O)CC2)c2nc(C#N)ccc21` [Example 3BB, trans-8-((4-((4-fluoro-2-hydroxyphenyl)(oxetan-3-ylmethyl)amino)cyclohexyl)(methyl)amino)-5-methyl-6-oxo-5,6-dihydro-1,5-naphthyridine-2-carbonitrile], the IC50 on DGKα and on DGKζ was no less than 1000 nM in each case.
Take `Cc1cc(F)cc(N(CC2CCC2)[C@H]2CC[C@H](N(C)c3c(C#N)c(=O)n(C)c4ccc(C#N)nc34)CC2)c1` [Example 94]: the 50% inhibitory concentration (IC50) at DGKα and at DGKζ was 100 to 1000 nM each time.
Take `COc1cc(F)ccc1N(CC1CC1)[C@H]1CC[C@H](N(C)c2cc(=O)n(C)c3ccc(C#N)nc23)CC1` [Example 3Y, trans-8-[[4-(N-cyclopropylmethyl-N-4-fluoro-2-methoxyphenyl-anilino)cyclohexyl]-methyl-amino]-5-methyl-6-oxo-5,6-dihydro-1,5-naphthyridine-2-carbonitrile]: the IC50 at DGKα and at DGKζ was no less than 1000 nM each time.
Take `Cn1c(=O)cc(N(C)[C@H]2CC[C@@H](N(CC3CC3)c3ccc(F)c(OC4CC4)c3)CC2)c2nc(C#N)ccc21` [Example 122, cis-8-((-4-((3-cyclopropoxy-4-fluorophenyl) (cyclopropylmethyl)amino)cyclohexyl)(methyl)amino)-5-methyl-6-oxo-5,6-dihydro-1,5-naphthyridine-2-carbonitrile]: the IC50 on DGKα and on DGKζ was 100 to 1000 nM throughout.
With `CN1C(=O)COc2ccc(N(CC3COCCO3)[C@H]3CC[C@@H](N(C)c4c(C#N)c(=O)n(C)c5ccc(C#N)nc45)CC3)cc21` (stereo partly drawn) [Example 187, cis-8-((4-(((1,4-dioxan-2-yl)methyl)(4-methyl-3-oxo-3,4-dihydro-2H-benzo[b][1,4]oxazin-6-yl)amino)cyclohexyl)(methyl)amino)-5-methyl-6-oxo-5,6-dihydro-1,5-naphthyridine-2,7-dicarbonitrile], the IC50 on DGKα and at DGKζ was 100 to 1000 nM each time.
Turning to `Cc1cc(F)ccc1N(CC1CCOC1)[C@H]1CC[C@@H](N(C)c2cc(=O)n(C)c3ccc(C#N)nc23)CC1` (stereo partly drawn) [Example 164, cis-8-((-4-((4-fluoro-2-methylphenyl) ((tetrahydrofuran-3-yl)methyl)amino)cyclohexyl) (methyl)amino)-5-methyl-6-oxo-5,6-dihydro-1,5-naphthyridine-2-carbonitrile], the half-inhibitory concentration (IC50) at DGKα and on DGKζ was 100 to 1000 nM in each case.
With `COc1cc(N(CC2CC2)[C@H]2CC[C@H](N(C)c3cc(=O)n(C)c4ccc(C#N)nc34)CC2)ccc1F` [Example 36, trans-8-((4-((cyclopropylmethyl)(4-fluoro-3-methoxyphenyl)amino)cyclohexyl)(methyl)amino)-5-methyl-6-oxo-5,6-dihydro-1,5-naphthyridine-2-carbonitrile], the IC50 at DGKα and on DGKζ was no less than 1000 nM throughout.
Regarding `Cc1cc(F)ccc1N(CC1COCCO1)[C@H]1CC[C@H](N(C)c2c(C#N)c(=O)n(C)c3ccc(C#N)nc23)CC1` (stereo partly drawn) [Example 173, trans-8-((4-(((1,4-dioxan-2-yl)methyl)(4-fluoro-2-methylphenyl)amino)cyclohexyl)(methyl)amino)-5-methyl-6-oxo-5,6-dihydro-1,5-naphthyridine-2,7-dicarbonitrile], the IC50 at DGKα and at DGKζ was 100 to 1000 nM throughout.
For the molecule `Cc1[nH]c2ccccc2c1C(=O)N[C@H]1CC[C@H](N(CC2COC2)c2ccccc2)CC1` [Example 4C, trans-2-Methyl-N-(4-((oxetan-3-ylmethyl)(phenyl)amino)cyclohexyl)-1H-indole-3-carboxamide], the IC50 on DGKα and on DGKζ was no less than 1000 nM throughout.
Consider `COc1cc(F)ccc1N(CC1CC1)[C@H]1CC[C@@H](N(C)c2c(C#N)c(=O)n(C)c3ccc(C#N)nc23)CC1` [Example 31, cis-8-((4-((cyclopropylmethyl)(4-fluoro-2-methoxyphenyl)amino)cyclohexyl)(methyl)amino)-5-methyl-6-oxo-5,6-dihydro-1,5-naphthyridine-2,7-dicarbonitrile], for which the IC50 at DGKα and at DGKζ was 100 to 1000 nM in each case.
Take `COc1cc(F)ccc1N(CC1CC1)[C@H]1CC[C@@H](N(C)c2c(C#N)c(=O)n(C)c3cccnc23)CC1` [Example 9, cis-4-((4-((cyclopropylmethyl)(4-fluoro-2-methoxyphenyl)amino)cyclohexyl)(methyl)amino)-1-methyl-2-oxo-1,2-dihydro-1,5-naphthyridine-3-carbonitrile]: the IC50 at DGKα and on DGKζ was no less than 1000 nM each time.
`Cc1ccccc1N(CC1CC1)[C@H]1CC[C@H](N(C)c2cc(=O)n(C)c3ccc(C#N)nc23)CC1` [Example 70, trans-8-((4-((cyclopropylmethyl)(o-tolyl)amino)cyclohexyl)(methyl)amino)-5-methyl-6-oxo-5,6-dihydro-1,5-naphthyridine-2-carbonitrile]: the IC50 was no less than 1000 nM on DGKα and 100 to 1000 nM on DGKζ.
For the molecule `Cn1c(=O)cc(N(C)[C@H]2CC[C@@H](N(CC3CCC3)c3cc4c(cc3F)OCO4)CC2)c2nc(C#N)ccc21` [Example 161, cis-8-((-4-((cyclobutylmethyl)(6-fluorobenzo[d][1,3]dioxol-5-yl)amino)cyclohexyl)(methyl)amino)-5-methyl-6-oxo-5,6-dihydro-1,5-naphthyridine-2-carbonitrile], the IC50 at DGKα is less than 10 nM; on DGKζ, 10 to 100 nM.
`CC(C)CN(c1ccc(F)cc1)[C@H]1CC[C@@H](N(C)c2cc(=O)n(C)c3ccc(C#N)nc23)CC1` [Example 47, cis-8-((-4-((4-fluorophenyl)(isobutyl)amino)cyclohexyl)(methyl)amino)-5-methyl-6-oxo-5,6-dihydro-1,5-naphthyridine-2-carbonitrile]: the results for the IC50 at DGKα and at DGKζ were 10 to 100 nM and no less than 1000 nM, respectively.
Consider `Cn1c(=O)c(C#N)c(N(C)[C@H]2CC[C@H](N(CC3CCC3)c3ccc(F)cc3CO)CC2)c2nc(C#N)ccc21` [Example 155, trans-8-((4-((cyclobutylmethyl)(4-fluoro-2-(hydroxymethyl)phenyl)amino)cyclohexyl)(methyl)amino)-5-methyl-6-oxo-5,6-dihydro-1,5-naphthyridine-2,7-dicarbonitrile], for which the half-inhibitory concentration (IC50) at DGKα and on DGKζ was 10 to 100 nM each time.
On to `Cn1c(=O)c(C#N)c(N(C)[C@H]2CC[C@@H](N(C[C@H]3CCOC3)c3ccc(F)cc3)CC2)c2nc(C#N)ccc21` [Example 66], for which the IC50 at DGKα is 10 to 100 nM; at DGKζ, 100 to 1000 nM.
`Cn1c(=O)c(C#N)c(N(C)[C@H]2CC[C@@H](N(CC3CC3)c3ccc4c(c3)OCO4)CC2)c2nc(C#N)ccc21` [Example 61, cis-8-((4-(benzo[d][1,3]dioxol-5-yl(cyclopropylmethyl)amino)cyclohexyl)(methyl)amino)-5-methyl-6-oxo-5,6-dihydro-1,5-naphthyridine-2,7-dicarbonitrile]: the figures for the IC50 on DGKα and at DGKζ were 100 to 1000 nM and 10 to 100 nM, respectively.
As for `Cc1cc(F)ccc1N(CC1CN(C)CCO1)[C@H]1CC[C@H](N(C)c2c(C#N)c(=O)n(C)c3ccc(C#N)nc23)CC1` (stereo partly drawn) [Example 186, trans-8-((-4-((4-fluoro-2-methylphenyl)((4-methylmorpholinium-2-yl)methyl)amino)cyclohexyl) (methyl)amino)-5-methyl-6-oxo-5,6-dihydro-1,5-naphthyridine-2,7-dicarbonitrile trifluoroacetate], the figures for the half-inhibitory concentration (IC50) on DGKα and on DGKζ were 100 to 1000 nM and no less than 1000 nM, respectively.
As for `Cc1cc(F)ccc1N(CC1CCC1)[C@H]1CC[C@H](N(C)c2c(C#N)c(=O)n(C)c3ccc(Cl)nc23)CC1` [Example 104, trans-6-chloro-4-((4-((cyclobutylmethyl)(4-fluoro-2-methylphenyl)amino)cyclohexyl)(methyl)amino)-1-methyl-2-oxo-1,2-dihydro-1,5-naphthyridine-3-carbonitrile], the IC50 on DGKα and at DGKζ was no less than 1000 nM throughout.
As to `COc1cccc(N(CC2CC2)[C@H]2CC[C@@H](N(C)c3c(C#N)c(=O)n(C)c4cccnc34)CC2)c1` [Example 15, cis-4-((4-((cyclopropylmethyl)(3-methoxyphenyl)amino)cyclohexyl)(methyl)amino)-1-methyl-2-oxo-1,2-dihydro-1,5-naphthyridine-3-carbonitrile], the figures for the IC50 on DGKα and on DGKζ were 100 to 1000 nM and no less than 1000 nM, respectively.
